Measurements taken from patent US6342504B1, “Aromatic heterocyclic derivatives as enzyme inhibitors” (priority 1994, dated 2002).
pIC50: −log10 of the molar value. Where a name gives a salt, the structure may show the parent alone. Read-outs that look alike come from different tables or passages of the source.

Assays:
Human rt-PA (Activase) = molecular target: T1, Human rt-PA (Activase) (Homo sapiens, UniProt P00750); assay: biochemical; details: 30 minute incubation
T1 construct: purchased Genentech Inc
Procedure: (§1) The ability of compounds of the present invention to act as a selective inhibitor of thrombin catalytic activity was assessed by determining the concentration of compound which inhibited the activity of this enzyme by 50%, (IC50), and comparing this value to that determined for all or some of the following related serine proteases: recombinant tissue plasminogen activator (rt-PA), plasmin, activated protein C, chymotrypsin, factor Xa and trypsin.
(§2) The buffer used for all assays was HBSA (10 mM HEPES, pH 7.5, 150 mM sodium chloride, 0.1% bovine serum albumin).
(§3) The assay for IC50 determinations was conducted by combining in appropriate wells of a Corning microtiter plate, 50 microliters of HBSA, 50 microliters of the test compound at a specified concentration (covering a broad concentration range) diluted in HBSA (or HBSA alone for VO (uninhibited velocity) measurement), and 50 microliters of the enzyme diluted in HBSA. Following a 30 minute incubation at ambient temperature, 50 microliters of the substrate at the concentrations specified below were added to the wells, yielding a final total volume of 200 microliters. The initial velocity of chromogenic substrate hydrolysis was measured by the change in absorbance at 405 nm using a Thermo Max® Kinetic Microplate Reader over a 5 minute period in which less than 5% of the added substrate was utilized. The concentration of added inhibitor which caused a 50% decrease in the initial rate of hydrolysis was defined as the IC50 value.
Recombinant Tissue Plasminogen Activator (rt-PA) Assay
rt-PA catalytic activity was determined using the substrate, Pefachrome t-PA (CH3SO2-D-hexahydrotyrosine-glycyl-L-arginine-p-nitroaniline, obtained from Pentapharm Ltd.). The substrate was made up in deionized water followed by dilution in HBSA prior to the assay in which the final concentration was 500 micromolar (about 3-times Km). Human rt-PA (Activase®) was obtained from Genentech Inc. The enzyme was reconstituted in deionized water and diluted into HBSA prior to the assay in which the final concentration was 1.0 nM.

human aPC = molecular target: T2, human aPC (Homo sapiens, UniProt P04070); assay: biochemical; details: 30 minute incubation; for pIC50: read-out: aPC (IC50) (Table 3A)
T2 construct: purchased Hematologic Technologies, Inc
Procedure: as §2
Following a 30 minute incubation at ambient temperature, 50 microliters of the substrate at the concentrations specified below were added to the wells, yielding a final total volume of 200 microliters.
Activated Protein C (aPC) Assay
aPC catalytic activity was determined using the chromogenic substrate, Pefachrome PC (delta-carbobenzloxy-D-lysine-L-prolyl-L-arginine-p-nitroaniline dihydrochloride), obtained from Pentapharm Ltd.). […] Purified human aPC was obtained from Hematologic Technologies, Inc. The enzyme was diluted into HBSA prior to assay in which the final concentration was 1.0 nM.

human alpha thrombin = molecular target: T3, human alpha thrombin (Homo sapiens, UniProt P00734); assay: Thrombin (fIIa) IC50 assay, chromogenic substrate Pefachrome t-PA; format: biochemical
T3 construct: Purified human alpha-thrombin; purchased Enzyme Research Laboratories, Inc
Procedure: as §1, §2, §3
Enzyme activity was determined using the chromogenic substrate, Pefachrome t-PA (CH3SO2-D-hexahydrotyrosine-glycyl-L-Arginine-p-nitroaniline, obtained from Pentapharm Ltd.). The substrate was reconstituted in deionized water prior to use. Purified human a-thrombin was obtained from Enzyme Research Laboratories, Inc. The buffer used for all assays was HBSA (10 mM HEPES, pH 7.5, 150 mM sodium chloride, 0.1% bovine serum albumin).
IC50 determinations were conducted where HBSA ([…]), a-thrombin (50 μl) and inhibitor (50 μl) (covering a broad concentration range), were combined in appropriate wells and incubated for 30 minutes at room temperature prior to the addition of substrate Pefachrome-t-PA (50 μl). The initial velocity of Pefachrome t-PA hydrolysis was measured by the change in absorbance at 405 nm using a Thermo Max® Kinetic Microplate Reader over a 5 minute period in which less than 5% of the added substrate was utilized. The concentration of added inhibitor which caused a 50% decrease in the initial rate of hydrolysis was defined as the IC50 value.

human plasmin = human plasmin (Homo sapiens, UniProt P00747); assay: biochemical; details: 30 minute incubation
Procedure: as §1, §2, §3
Plasmin catalytic activity was determined using the chromogenic substrate, S-2366 [L-pyroglutomyl-L-prolyl-L-arginine-p-nitroaniline hydrochloride], which was obtained from Pharmacia-Upjohn. The substrate was made up in deionized water followed by dilution in HBSA prior to the assay in which the final concentration was 300 micromolar (about 2.5-times Km). Purified human plasmin was obtained from Enzyme Research Laboratories, Inc. The enzyme was diluted into HBSA prior to assay in which the final concentration was […].

[1] = read-out: rt-PA (IC50) (Table 3A)
[2] = read-out: Plasmin (IC50) (Table 3A)
[3] = read-out: Plasmin IC50 (Table 3B)
[4] = 30 minute incubation, read-out: Thrombin IC50 (Table 3C)

human plasmin, sequence (P00747 97-580): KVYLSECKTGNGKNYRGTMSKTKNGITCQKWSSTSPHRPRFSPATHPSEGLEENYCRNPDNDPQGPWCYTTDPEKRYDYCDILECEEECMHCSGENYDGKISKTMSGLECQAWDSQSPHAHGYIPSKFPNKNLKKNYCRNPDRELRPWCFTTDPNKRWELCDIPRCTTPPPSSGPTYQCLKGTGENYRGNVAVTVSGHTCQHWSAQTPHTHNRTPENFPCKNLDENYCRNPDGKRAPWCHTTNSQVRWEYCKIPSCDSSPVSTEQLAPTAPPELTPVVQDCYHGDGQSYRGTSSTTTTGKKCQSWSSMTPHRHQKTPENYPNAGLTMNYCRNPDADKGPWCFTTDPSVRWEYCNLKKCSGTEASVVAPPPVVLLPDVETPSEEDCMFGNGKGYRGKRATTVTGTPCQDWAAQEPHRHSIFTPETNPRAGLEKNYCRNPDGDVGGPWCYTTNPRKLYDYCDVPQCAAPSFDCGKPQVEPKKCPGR
human plasmin, sequence (P00747 581-810): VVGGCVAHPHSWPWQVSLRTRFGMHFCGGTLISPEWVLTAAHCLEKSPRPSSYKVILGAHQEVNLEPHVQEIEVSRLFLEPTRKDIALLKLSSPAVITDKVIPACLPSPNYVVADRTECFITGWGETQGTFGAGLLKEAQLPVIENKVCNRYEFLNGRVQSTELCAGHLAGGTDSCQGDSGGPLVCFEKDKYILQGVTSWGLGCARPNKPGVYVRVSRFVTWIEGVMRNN
T2 sequence (P04070 43-197): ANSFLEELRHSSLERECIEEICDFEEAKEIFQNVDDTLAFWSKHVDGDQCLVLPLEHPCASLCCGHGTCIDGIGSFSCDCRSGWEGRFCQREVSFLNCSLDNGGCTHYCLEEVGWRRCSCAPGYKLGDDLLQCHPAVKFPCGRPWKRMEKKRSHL
T2 sequence (P04070 212-461): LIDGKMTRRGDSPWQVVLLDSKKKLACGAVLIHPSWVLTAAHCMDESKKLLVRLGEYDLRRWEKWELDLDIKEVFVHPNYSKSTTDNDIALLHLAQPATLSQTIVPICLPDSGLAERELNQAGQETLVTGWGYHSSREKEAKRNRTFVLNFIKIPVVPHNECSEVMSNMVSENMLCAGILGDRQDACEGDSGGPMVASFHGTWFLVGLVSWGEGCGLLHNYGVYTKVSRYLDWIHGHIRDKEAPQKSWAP
T1 sequence (P00750 36-562): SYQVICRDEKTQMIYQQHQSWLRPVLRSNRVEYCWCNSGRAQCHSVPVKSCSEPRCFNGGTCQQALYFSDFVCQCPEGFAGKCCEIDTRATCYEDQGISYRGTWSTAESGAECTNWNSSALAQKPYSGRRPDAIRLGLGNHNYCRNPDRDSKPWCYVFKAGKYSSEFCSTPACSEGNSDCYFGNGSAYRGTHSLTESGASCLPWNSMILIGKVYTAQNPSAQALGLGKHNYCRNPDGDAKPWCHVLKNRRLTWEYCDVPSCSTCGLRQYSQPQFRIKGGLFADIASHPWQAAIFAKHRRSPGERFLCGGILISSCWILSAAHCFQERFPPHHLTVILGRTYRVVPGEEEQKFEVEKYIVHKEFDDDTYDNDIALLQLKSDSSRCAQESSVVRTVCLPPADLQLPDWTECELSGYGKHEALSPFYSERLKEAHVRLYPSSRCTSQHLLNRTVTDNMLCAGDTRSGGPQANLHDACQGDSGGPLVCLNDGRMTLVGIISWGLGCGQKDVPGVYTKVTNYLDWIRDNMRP

Compound	pIC50 (Human rt-PA (Activase); [1])	pIC50 (human aPC)	pIC50 (human alpha thrombin)	pIC50 (human plasmin; [2])	pIC50 (human plasmin; [3])	other results
Cc1ccc(F)cc1S(=O)(=O)Nc1cccn(CC(=O)N[C@H](C=O)CCCNC(=N)N)c1=O [2-Me, 5-F-phenyl, [3-(2-methyl-5-fluorophenyl)sulfonylamino-2-oxo-1,2-dihydro-pyridyl]acetyl-L-argininal]	< 5.60	< 5.60	8.71	< 5.60		
COc1ccc(Cl)cc1S(=O)(=O)Nc1cccn(CC(=O)NC(C=O)CCCNC(=N)N)c1=O [2-OMe, 5-Cl-phenyl, (5-chloro-2-methoxy-phenylsulfonyl-3-amino-2-oxo-1,2-dihydropyridyl)acetyl-L-Argininal, trifluoroacetate salt]	< 5.60	< 5.60	8.94	< 5.60		
N=C(N)NCCC[C@@H](C=O)NC(=O)Cn1cccc(NS(=O)(=O)c2ccccc2C(F)(F)F)c1=O [Compound 2-CF3-phenyl]	< 5.60	< 5.60	8.25	< 5.60		
Cc1ccccc1S(=O)(=O)Nc1cccn(CC(=O)N[C@H](C=O)CCCNC(=N)N)c1=O [Compound 2-Me-phenyl, [3-(2-methylphenyl)sulfonylamino-2-oxo-1,2-dihydropyridyl]acetyl-L-argininal]	< 5.60	< 5.60	8.85	< 5.60		
N=C(N)NCCC[C@@H](C=O)NC(=O)Cn1cccc(NS(=O)(=O)c2ccccc2N)c1=O [Compound 2-NH2phenyl, [3-(2-aminophenyl)sulfonylamino-2-oxo-1,2-dihydropyridyl]acetyl-L-argininal]	< 5.60	< 5.60	8.43	< 5.60		
COc1ccccc1S(=O)(=O)Nc1cccn(CC(=O)N[C@H](C=O)CCCNC(=N)N)c1=O [Compound 2-OMe-phenyl, [3-(2-methoxylphenyl)sulfonylamino-2-oxo-1,2-dihydropyridyl]acetyl-L-argininal]	< 5.60	< 5.60	8.70	< 5.60		
N=C(N)NCCC[C@@H](C=O)NC(=O)Cn1cccc(NS(=O)(=O)c2cccc(C(F)(F)F)c2)c1=O [Compound 3-CF3-phenyl, [3-(3-trifluoromethylphenyl)sulfonylamino-2-oxo-1,2-dihydro-pyridyl]acetyl-L-argininal]	< 5.60	< 5.60	8.51	< 5.60		
Cc1cccc(S(=O)(=O)Nc2cccn(CC(=O)N[C@H](C=O)CCCNC(=N)N)c2=O)c1 [Compound 3-Me-phenyl, [3-(3-methyiphenyl)sulfonylamino-2-oxo-1,2-dihydro-pyridyl]acetyl-L-argininal]	< 5.60	< 5.60	9.07	< 5.60		
COc1cccc(S(=O)(=O)Nc2cccn(CC(=O)N[C@H](C=O)CCCNC(=N)N)c2=O)c1 [Compound 3-OMe-phenyl, [3-(3-methoxylphenyl)sulfonylamino-2-oxo-1,2-dihydropyridyl]acetyl-L-argininal]	< 5.60	< 5.60	9.19	< 5.60		
N=C(N)NCCC[C@@H](C=O)NC(=O)Cn1cccc(NS(=O)(=O)c2ccccc2F)c1=O [Compound 121A]			7.83		< 5.60	
COc1ccc(OC)c(S(=O)(=O)Nc2cccn(CC(=O)N[C@H](C=O)CCCNC(=N)N)c2=O)c1 [Compound 121E, [3-(2,5-dimethoxyphenyl)sulfonylamino-2-oxo-1,2-dihydropyridyl]acetyl-L-argininal]			9.22		< 5.60	rtPA IC50 (Table 3B) (Human rt-PA (Activase)): inactive; aPC IC50 (Table 3B) (human aPC): inactive
N=C(N)NCCC[C@@H](C=O)NC(=O)Cn1cccc(NS(=O)(=O)CCc2ccccc2)c1=O [Compound 121G, [3-(phenethyl)sulfonylamino-2-oxo-1,2-dihydropyridyl]acetyl-L-argininal]			7.33		~5.60	
N=C(N)NCCC[C@@H](C=O)NC(=O)Cn1cccc(NS(=O)(=O)Cc2ccccc2F)c1=O [Compound 121J]			9.12		< 5.60	pIC50 (Human rt-PA (Activase); read-out: rtPA IC50 (Table 3B)): < 5.60; aPC IC50 (Table 3B) (human aPC): inactive
N=C(N)NCCC[C@@H](C=O)NC(=O)Cn1cccc(NS(=O)(=O)Cc2cccc(F)c2)c1=O [Compound 121K]			9.05		< 5.60	rtPA IC50 (Table 3B) (Human rt-PA (Activase)): inactive; aPC IC50 (Table 3B) (human aPC): inactive
COC(=O)c1ccccc1CS(=O)(=O)Nc1cccn(CC(=O)N[C@H](C=O)CCCNC(=N)N)c1=O [Compound 121M]			9.21		< 5.60	
N=C(N)NCCC[C@@H](C=O)NC(=O)Cn1cccc(NS(=O)(=O)Cc2cc(F)ccc2F)c1=O [Compound 121P, [3-(2,5-difluorobenzyl)sulfonylamino-2-oxo-1,2-dihydropyridyl]acetyl-L-argininal]			8.76		< 5.60	pIC50 (Human rt-PA (Activase); read-out: rtPA IC50 (Table 3B)): < 5.60; aPC IC50 (Table 3B) (human aPC): inactive
Cc1ccc(F)cc1S(=O)(=O)Nc1ccc(C)n(CC(=O)N[C@H](C=O)CCCNC(=N)N)c1=O [Compound 126B, [3-(5-fluoro-2-methylphenyl)sulfonylamino-6-methyl-2-oxo-1,2-dihydro-pyridyl]acetyl-L-argininal]			9.05		< 5.60	rtPA IC50 (Table 3B) (Human rt-PA (Activase)): inactive; aPC IC50 (Table 3B) (human aPC): inactive
COc1cccc(S(=O)(=O)Nc2ccc(=O)n(CC(=O)N[C@H](C=O)CCCNC(=N)N)c2)c1OC [Compound 152B, [5-(2,3-dimethoxy-benzene)sulfonylamino-2-oxo-1,2-dihydropyridyl]acetyl-L-argininal]						pIC50 (human alpha thrombin; [4]): 7.83
Cc1ccc(NS(=O)(=O)Cc2ccccc2)c(=O)n1CC(=O)N[C@H](C=O)CCCNC(=N)N [Compound C, (3-benzylsulfonylamino-6-methyl-2-oxo-1,2-dihydro-1-pyridyl)acetyl-L-argininal, trifluoroacetate salt]			9.33			pIC50 (human plasmin; read-out: IC50 Plasmin (Table 2)): < 5.60
[2,3-methylenedioxy-benzene)sulfonylamino-2-oxo-1,2-dihydropyridyl]acetyl-L-argininal [Compound 152D]						pIC50 (human alpha thrombin; [4]): 9.10
[5-(1,3-benzodioxole)sulfonylalmino-6-methyl-2-oxo-1,2-dihydro-pyridyl]acetyl-L-argininal [Compound 153D]						pIC50 (human alpha thrombin; [4]): 9.51
[5-(1,3-benzodioxole)sulfonylamino-2-oxo-1,2-dihydropyridyl]acetyl-L-argininal [Compound 152A]						pIC50 (human alpha thrombin; [4]): 9.09
[5-(1,4-benzodioxan)sulfonylamino-6-methyl-2-oxo-1,2-dihydro-pyridyl]acetyl-L-argininal [Compound 153B]						pIC50 (human alpha thrombin; [4]): 9.56
[5-(2,3-dihydrobenzofuran)sulfonylamino-6-methyl-2-oxo-1,2-dihydro-pyridyl]acetyl-L-argininal [Compound 153C]						pIC50 (human alpha thrombin; [4]): 9.58
[5-(2,3-dioxaspirocyclohexyl)-sulfonylamino-2-oxo-1,2-dihydropyridyl]acetyl-L-argininal [Compound 152C]						pIC50 (human alpha thrombin; [4]): 8.22
